Measured values: patent US10464885B2, “Compound, preparation method therefor, applications thereof, corresponding targeted drug delivery system, chemotherapy drugs, and treatment method” (BEIJING XINDE RUNXING TECHNOLOGY CO., LTD., priority 2015, dated 2019)

How the values were obtained:
[1] = system: patients with relapsed SCLC; conditions: cited from earlier work
[2] = Solubility in solvents (experimental results); assay type: physicochemical
Excerpt: The molecular weight is 367.9967.

Jurkat cell line = assay: Cell viability CCK-8 assay, Jurkat cell suspension; assay type: cell-based; conditions: six concentrations 0.041 μM-10 μM; 24 h, 48 h and 72 h; OD at 450 nm
Procedure: Test cell line: Jurkat cell line (purchased from Nanjing Cobioer Co., Ltd.)
Experimental method: Cell viability CCK-8 assay
Experimental design: within a dose concentration range of 0.041 μM-10 μM, six concentrations were designed with three-fold increments, including 0.041 μM, 0.123 μM, 0.367 μM, 1.1 μM, 3.3 μM and 10 μM.
1. A Jurkat cell suspension was prepared and inoculated to the 96-well plate at an amount of 5×10^4/well.
2. The Jurkat cell suspension was directly added to different concentrations of NIC-1 and control drug N-(2-chloro-4-nitrophenyl)-5-chloro-2-hydroxybenzamide, followed by culture in an incubator at 37° C. for 24 h, 48 h and 72 h respectively; CCK8 was measured by adding CCK8 to each well at an amount of 10 μl/well, culturing for 2-3 h and detecting a value of OD at 450 nm using a microplate reader.
Experimental results: the outcomes of the synthesized compound NIC-1 of the present invention and the control drug N-(2-chloro-4-nitrophenyl)-5-chloro-2-hydroxybenzamide in the six concentrations were compared with those of the blank control, respectively. […]

[3] = system: small cell lung cancer cell line H446; assay: H446 cell colony in vitro formation assay (crystal violet staining); assay type: cell-based; conditions: Day 7 (one week)
Procedure: Test cell line: small cell lung cancer cell line H446 (purchased from Shanghai Beinuo Life Science Co., Ltd.) Experimental method: H446 cell colony in vitro formation assay
Detection method: crystal violet staining
On Day 1, a 6-well plate (Transwell, batch No. 3428, manufactured by Corning Incorporated) was adopted as cell plate, with 2000 cells/well per plate.
On Day 2, after microscopic observation of cell adherence, a 1 ml medium containing the drug was loaded to each well, with settings of 2 wells in one group and totally three groups: A. 6 μmol/L, a. 6 μmol/L (multiple wells); B. blank (no drug); b. blank (no drug, multiple wells); C. 12 μmol/L; c. 12 μmol/L (multiple wells); the drugs were changed every three days, and the observation was performed every day.
On Day 7, cell colonies were visually observed at the bottom of the vessel, and the cells were collected by: discarding the culture medium in each well, washing cells with phosphate buffered saline (PBS) twice for 5 minutes each time, adding 500 μl crystal violet stain solution to each well for staining at room temperature for 15 minutes, washing cells with PBS twice for 5 minutes each time, and finally detecting on a WB analyzer.

[4] = system: small cell lung cancer cell line H446; assay: Cell viability CCK-8 assay, H446; assay type: cell-based; conditions: 48 h after dosing
Excerpt: Test cell line: small cell lung cancer cell line H446 (purchased from Shanghai Beinuo Life Science Co., Ltd.)
Cell viability CCK-8 assay: CCK8 assay, with a reagent containing 2-(2-methoxy-4-nitrophenyl)-3-(4-nitrophenyl)-5-(2,4-disulfophenyl)-2H-tetrazole monosodium salt (WST-8), is reduced by dehydrogenase in the cells in the presence of electron carrier 1-methoxy-5-methylphenazinium […] (1-Methoxy PMS), to obtain a highly water-soluble yellow formazan product (Formazan), and the count of viable cells is positively associated with the amount of obtained formazan product. Thus, CCK8 assay can be directly used for the evaluation of cell proliferation and toxicity analysis.
Each well of 96-well plate was loaded at an amount of 7×10^3 cells/well. After 24 h plating, 200 μl of solution was supplied to each well. NIC-1, vp-16 and blank were applied to the plate in four concentrations: concentration 1=1.528 μm, concentration 2=1.528 μm*2, concentration 3=1.528 μm*5, concentration 4=1.528 μm*10, wand each group was made in triplicate.
The plate was harvested 48 h after dosing, by:
discarding 200 μl solution in each well, adding 100 μl solution (90 μl medium+10 μl CCK8 stock solution) to each well, placing the plate in a 37° C. incubator for about 1 hour, and measuring a value of OD at 450 nm using a microplate reader.
The small cell lung cancer cell line H446 was treated with NIC-1 and etoposide (vp16) for […] respectively, and then the cell viability was detected by CCK-8 assay.
The synthesized compound NIC-1 of the present invention in the concentrations of 1.528 μM, 3.056 μM, 7.64 μM and 15.28 μM was compared with etoposide (vp16) and blank control, respectively. As shown in FIGS. 5-8, a chart of comparison of the inhibitory effect on the cell viability of small cell lung cancer cell line H446 was shown in each figure, wherein the horizontal axis represented the blank control, NIC-1, vp-16 and corresponding dosage concentrations, and the vertical axis represented measured OD values.

human body = conditions: oral treatment of taeniasis, adults and children; cited from earlier work
[5] = oral, Day 1, 8 and 15 of 28 days

## CC[C@@]1(O)C(=O)OCc2c1cc1n(c2=O)Cc2cc3c(CN(C)C)c(O)ccc3nc2-1 [topotecan]
[1]; [5]
  dose at which dose-limiting toxicity (DLT) appeared: 4.5 mg/m^2
  maximum tolerated dose (MTD): 4 mg/m^2
[1]; weekly oral
  II degree thrombocytopenia: 16.7%
  II-III degree anemia: 33.3%
  II-III degree fever: 44.4%
  II-III degree neutropenia: 27.8%
  median progression-free survival (PFS): 2.3 months
  median survival (OS): 5.1 months

## CC(=O)Oc1ccc(Cl)cc1C(=O)Nc1ccc([N+](=O)[O-])cc1Cl [NIC-1, N-(2-chloro-4-nitrophenyl)-5-chloro-2-acetoxybenzamide]
[2]; dichloromethane
  solubility in dichloromethane: soluble
[2]; ethanol
  solubility in ethanol: slightly soluble
[2]; ether
  solubility in ether: slightly soluble
[2]; water
  solubility in water: insoluble
Jurkat cell line
  inhibitory effect on cell viability of Jurkat cell line compared with control drug: superior to the control drug
[3]; 6 μmol/L
  inhibition of growth of H446 cells (colony formation): partially inhibited
[3]; 12 μmol/L
  inhibition of growth of H446 cells (colony formation): completely inhibited
[4]; 1.528 μM
  inhibitory effect on cell viability of H446 compared with etoposide (vp16): slightly better than etoposide (vp16)
[4]; 3.06 μM
  inhibitory effect on cell viability of H446 compared with etoposide (vp16): significantly better than etoposide (vp16)
[4]; 7.64 μM
  inhibitory effect on cell viability of H446 compared with etoposide (vp16): significantly better than etoposide (vp16)
[4]; 15.28 μM
  inhibitory effect on cell viability of H446 compared with etoposide (vp16): significantly better than etoposide (vp16)

## O=C(Nc1ccc([N+](=O)[O-])cc1Cl)c1cc(Cl)ccc1O [N-(2-chloro-4-nitrophenyl)-5-chloro-2-hydroxybenzamide]
Human body
  side effects: occasional side effects manifested by fatigue, dizziness, chest tightness, gastrointestinal disorders, fever and itching
